Experimental data published in ChEMBL document CHEMBL4811228, “Design, Synthesis, and Activity Evaluation of Novel Acyclic Nucleosides as Potential Anticancer Agents In Vitro and In Vivo” (J Med Chem, 2021).
Activity calls are given as the source filed them. The rule behind the calls is not given here.

Experiments:
[1] = Acute toxicity in BALB/c mouse assessed as animal survival at 250 mg/kg, ip administered per 4 hrs for 4 times and measured everyday for 14 days (reference value: 100%); assay type: organism-based; conditions: in vivo, time 14 day
[2] = test system: SW480; test: Induction of mitochondrial membrane potential loss in human SW480 cells assessed as cells with low MMP emitting green fluorescence at 2 uM incubated for 24 hrs by JC-1 staining based flow cytometry (reference value: 17.96%); assay type: functional
[3] = test system: HCT-116; test: Antiproliferative activity against human HCT-116 cells assessed as reduction in cell viability incubated for 48 hrs by MTT assay; assay type: functional, cell-based; conditions: HCT-116, 48 h
[4] = test system: HCT-116; test: Inhibition of colony formation in human HCT-116 cells at 2 to 8 uM incubated for 48 hrs followed by culture medium replenishment for every 72 hrs and measured after 14 days by crystal violet staining based analysis; assay type: functional, cell-based; conditions: dose 2-8 µM, time 14.0 day
[5] = Acute toxicity in BALB/c mouse assessed as animal survival at 100 mg/kg, ip administered per 4 hrs for 4 times and measured everyday for 14 days (Rb =100%); assay type: organism-based; conditions: in vivo, time 14 day
[6] = test system: SW480; test: Induction of apoptosis in human SW480 cells assessed as early apoptotic cells at 2 uM incubated for 48 hrs by Annexin V-FITC/PI staining based flow cytometry (reference value: 1.87%); assay type: functional
[7] = test system: SW480; test: Inhibition of colony formation in human SW480 cells at 2 to 8 uM incubated for 48 hrs followed by culture medium replenishment for every 72 hrs and measured after 14 days by crystal violet staining based analysis; assay type: functional, cell-based; conditions: dose 2-8 µM, time 14.0 day
[8] = test system: SW480; test: Induction of apoptosis in human SW480 cells assessed as reduction in Bcl-xl protein expression at 2 to 16 uM incubated for 48 hrs by western blot analysis; assay type: functional, cell-based; conditions: dose 2-16 µM
[9] = test system: SW480; test: Induction of apoptosis in human SW480 cells assessed as viable cells at 32 uM incubated for 48 hrs by Annexin V-FITC/PI staining based flow cytometry (reference value: 90.56%); assay type: functional; conditions: read-out: Activity
[10] = test system: SW480; test: Inhibition of colony formation in human SW480 cells at >=16 uM incubated for 48 hrs followed by culture medium replenishment for every 72 hrs and measured after 14 days by crystal violet staining based analysis; assay type: functional; conditions: dose microM >=16; time 14 day
[11] = Half life in mouse liver microsomes at 0.1 uM preincubated for 10 mins followed by NADPH addition and measured up to 60 mins by LC-MS/MS analysis; assay type: ADME, Microsome; conditions: time 70 min
[12] = test system: HCT-116; test: Induction of cell cycle arrest in human HCT-116 cells assessed as accumulation at G0/G1 phase at 16 uM incubated for 24 hrs by propidium iodide staining based flow cytometry; assay type: functional
[13] = test system: SW480; test: Induction of apoptosis in human SW480 cells assessed as necrotic cells at 8 uM incubated for 48 hrs by Annexin V-FITC/PI staining based flow cytometry (reference value: 2.9%); assay type: functional
[14] = Acute toxicity in BALB/c mouse assessed as animal survival at 150 mg/kg, ip administered per 4 hrs for 4 times and measured everyday for 14 days (Rb =100%); assay type: organism-based; conditions: in vivo, time 14 day
[15] = test system: SW480; test: Induction of apoptosis in human SW480 cells assessed as increase in p53 protein expression at 2 to 16 uM incubated for 48 hrs by western blot analysis; assay type: functional, cell-based; conditions: dose 2-16 µM
[16] = test system: HCT-116; test: Induction of apoptosis in human HCT-116 cells at 32 uM incubated for 48 hrs by Annexin V-FITC/PI staining based flow cytometry (reference value: 12%); assay type: functional
[17] = test system: SW480; test: Antitumor activity against human SW480 cells xenografted in ip dosed BALB/c mouse assessed as reduction in tumor weight administered every 2 days for 12 days; assay type: functional, organism-based; conditions: dose 25-50 mg/kg, time 12.0 day
[18] = test system: SW480; test: Induction of apoptosis in human SW480 cells assessed as early apoptotic cells at 4 uM incubated for 48 hrs by Annexin V-FITC/PI staining based flow cytometry (reference value: 1.87%); assay type: functional
[19] = Acute toxicity in ip dosed BALB/c mouse administered per 4 hrs for 4 times and measured everyday for 14 days; assay type: organism-based; conditions: in vivo, time 14 day
[20] = test system: SW480; test: Induction of apoptosis in human SW480 cells assessed as late apoptotic cells at 32 uM incubated for 48 hrs by Annexin V-FITC/PI staining based flow cytometry (reference value: 4.67%); assay type: functional
[21] = Half life in human liver microsomes at 0.1 uM preincubated for 10 mins followed by NADPH addition and measured up to 60 mins by LC-MS/MS analysis; assay type: ADME, Microsome; conditions: time 70 min
[22] = test system: SW480; test: Induction of apoptosis in human SW480 cells at 4 to 8 uM pretreated with pan-caspase inhibitor, Q-VD-OPh followed by incubation with compound for 48 hrs by Annexin V-FITC/PI staining based flow cytometry; assay type: functional, cell-based; conditions: dose 4-8 µM
[23] = test system: SW480; test: Induction of mitochondrial membrane potential loss in human SW480 cells assessed as increase in cells with low MMP emitting green fluorescence at 2 to 8 uM incubated for 24 hrs by JC-1 staining based fluorescence microscopy; assay type: functional, cell-based; conditions: dose 2-8 µM
[24] = test system: SW480; test: Induction of apoptosis in human SW480 cells assessed as viable cells at 8 uM incubated for 48 hrs by Annexin V-FITC/PI staining based flow cytometry (reference value: 90.56%); assay type: functional; conditions: read-out: Activity
[25] = test system: SW480; test: Antitumor activity against human SW480 cells xenografted in ip dosed BALB/c mouse assessed as reduction in tumor volume administered every 2 days for 12 days; assay type: functional, organism-based; conditions: dose 25-50 mg/kg, time 12.0 day
[26] = test system: SW480; test: Induction of mitochondrial membrane potential loss in human SW480 cells assessed as cells with high MMP emitting red fluorescence at 8 uM incubated for 24 hrs by JC-1 staining based flow cytometry (reference value: 64.2%); assay type: functional
[27] = test system: SW480; test: Induction of apoptosis in human SW480 cells assessed as necrotic cells at 2 uM incubated for 48 hrs by Annexin V-FITC/PI staining based flow cytometry (reference value: 2.9%); assay type: functional
[28] = test system: HCT-116; test: Potency index, ratio of 5-FU IC50 to test compound IC50 for antiproliferative activity against human HCT-116 cells; assay type: functional
[29] = test system: SW480; test: Induction of apoptosis in human SW480 cells assessed as necrotic cells at 16 uM incubated for 48 hrs by Annexin V-FITC/PI staining based flow cytometry (reference value: 2.9%); assay type: functional
[30] = Acute toxicity in BALB/c mouse assessed as animal survival at 200 mg/kg, ip administered per 4 hrs for 4 times and measured everyday for 14 days (Rb =100%); assay type: organism-based; conditions: in vivo, time 14 day
[31] = test system: SW480; test: Induction of apoptosis in human SW480 cells assessed as early apoptotic cells at 16 uM incubated for 48 hrs by Annexin V-FITC/PI staining based flow cytometry (reference value: 1.87%); assay type: functional
[32] = Acute toxicity in BALB/c mouse assessed as animal survival at 300 mg/kg, ip administered per 4 hrs for 4 times and measured everyday for 14 days (reference value: 100%); assay type: organism-based; conditions: in vivo, time 14 day
[33] = test system: SW480; test: Induction of apoptosis in human SW480 cells assessed as late apoptotic cells at 16 uM incubated for 48 hrs by Annexin V-FITC/PI staining based flow cytometry (reference value: 4.67%); assay type: functional
[34] = test system: SW480; test: Induction of apoptosis in human SW480 cells assessed as viable cells at 4 uM incubated for 48 hrs by Annexin V-FITC/PI staining based flow cytometry (reference value: 90.56%); assay type: functional; conditions: read-out: Activity
[35] = test system: HCT-116; test: Inhibition of colony formation in human HCT-116 cells at >=16 uM incubated for 48 hrs followed by culture medium replenishment for every 72 hrs and measured after 14 days by crystal violet staining based analysis; assay type: functional; conditions: dose microM >=16; time 14 day

CCCCCCCCCC(CCO)n1cnc2c(Cl)ncnc21 (racemic)
survival at 336 h [1]: 20% | Activity [2]: 28.88% | IC50 [3]: 890 nM | inhibition [4]: Active | survival at 336 h [5]: 100% | Activity [6]: 5.2% | inhibition [7]: Active | Activity [8]: Active | viability at 32 µM [9]: 26.8% | inhibition (INH) [10]: 100% | half-life at 0.1 µM [11]: 1 min | Activity [12]: Active | Activity [13]: 16.97% | survival at 336 h [14]: 100% | Activity [15]: Active | Activity [16]: 66% | Activity [17]: Dose-Dependent Effect | Activity [18]: 11.67% | LD50 at 336 h [19]: 220 mg/kg | Activity [20]: 13.76% | half-life at 0.1 µM [21]: 10.8 min | Activity [22]: Active | Activity [23]: Active | viability at 8 µM [24]: 56.5% | Activity [25]: Dose-Dependent Effect | Activity [26]: 31.56% | Activity [27]: 9.2% | Ratio IC50 [28]: 10 | Activity [29]: 11.01% | survival at 336 h [30]: 70% | Activity [31]: 24.5% | survival at 336 h [32]: 0% | Activity [33]: 20.5% | viability at 4 µM [34]: 71.5% | inhibition (INH) [35]: 100%
